Earlier results as cited in patent US20090305955A1, “Cyclopeptide with Anti-Cancer Activity Derived from Collagen Type IV” (priority 2006, published 2009).

How the values were obtained:
angiogenesis = details: Pasco S et al, 2005; cited from earlier work
[1] = target: T1, αVβ3 integrin-CD47 protein complex (Homo sapiens, UniProt P05106); details: Shahan T A et al; cited from earlier work
T1 construct: αVβ3 integrin-CD47 protein complex present on the surface of melanoma cells

[2] = system: various cancer cell lines; details: Han J et al; Shahan S et al; cited from earlier work
[3] = system: melanoma or fibrosarcoma cells; details: Pasco S et al, 2000a; cited from earlier work
[4] = system: murine melanoma B16F1 cells; details: cells pre-incubated with peptide, injected into C57BL6 syngenic mice; Floquet et al; cited from earlier work

T1 sequence (P05106 27-788): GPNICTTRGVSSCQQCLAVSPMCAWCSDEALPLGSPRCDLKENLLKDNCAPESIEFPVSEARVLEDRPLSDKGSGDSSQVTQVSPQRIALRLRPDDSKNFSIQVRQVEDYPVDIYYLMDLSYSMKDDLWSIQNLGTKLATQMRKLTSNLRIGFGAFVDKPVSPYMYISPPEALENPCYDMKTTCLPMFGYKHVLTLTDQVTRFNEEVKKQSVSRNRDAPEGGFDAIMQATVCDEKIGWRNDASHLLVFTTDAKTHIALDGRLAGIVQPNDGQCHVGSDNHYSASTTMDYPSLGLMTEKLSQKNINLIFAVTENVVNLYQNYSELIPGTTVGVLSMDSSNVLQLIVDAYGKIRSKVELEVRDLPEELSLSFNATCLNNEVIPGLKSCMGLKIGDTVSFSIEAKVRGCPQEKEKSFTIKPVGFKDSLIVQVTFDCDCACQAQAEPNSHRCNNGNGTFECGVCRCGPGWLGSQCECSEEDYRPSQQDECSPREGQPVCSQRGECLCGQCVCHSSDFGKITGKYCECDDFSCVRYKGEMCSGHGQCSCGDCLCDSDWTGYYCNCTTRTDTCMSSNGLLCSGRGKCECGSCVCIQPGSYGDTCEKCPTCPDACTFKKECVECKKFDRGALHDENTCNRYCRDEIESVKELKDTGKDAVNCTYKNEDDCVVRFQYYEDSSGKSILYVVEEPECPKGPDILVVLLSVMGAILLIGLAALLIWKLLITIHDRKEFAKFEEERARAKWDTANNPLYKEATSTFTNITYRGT
T1 sequence (P06756 31-889 partner limits assumed): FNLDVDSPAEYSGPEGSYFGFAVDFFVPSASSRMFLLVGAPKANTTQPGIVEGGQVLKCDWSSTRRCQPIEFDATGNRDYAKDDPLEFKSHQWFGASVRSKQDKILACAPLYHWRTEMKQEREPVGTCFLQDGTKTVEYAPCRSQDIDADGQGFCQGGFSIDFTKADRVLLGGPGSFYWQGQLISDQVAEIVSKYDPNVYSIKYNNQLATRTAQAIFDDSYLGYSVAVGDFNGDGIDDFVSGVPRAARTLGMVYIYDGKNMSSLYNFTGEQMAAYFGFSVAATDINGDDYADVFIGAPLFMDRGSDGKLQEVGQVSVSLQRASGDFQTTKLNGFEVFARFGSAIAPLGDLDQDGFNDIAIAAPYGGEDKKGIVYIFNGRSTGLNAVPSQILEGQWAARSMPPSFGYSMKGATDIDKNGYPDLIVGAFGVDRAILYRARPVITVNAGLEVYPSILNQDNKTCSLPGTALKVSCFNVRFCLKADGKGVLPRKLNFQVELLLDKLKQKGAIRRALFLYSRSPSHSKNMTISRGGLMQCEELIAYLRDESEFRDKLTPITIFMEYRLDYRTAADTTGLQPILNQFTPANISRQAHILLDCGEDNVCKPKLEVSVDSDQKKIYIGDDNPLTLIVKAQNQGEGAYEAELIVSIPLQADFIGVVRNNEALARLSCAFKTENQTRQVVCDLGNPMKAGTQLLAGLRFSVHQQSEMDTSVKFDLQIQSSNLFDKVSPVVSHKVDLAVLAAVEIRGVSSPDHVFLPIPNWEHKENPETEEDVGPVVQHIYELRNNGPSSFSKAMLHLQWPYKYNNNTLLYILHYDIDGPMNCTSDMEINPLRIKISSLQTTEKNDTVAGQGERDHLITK
T1 sequence (P06756 891-1048 partner limits assumed): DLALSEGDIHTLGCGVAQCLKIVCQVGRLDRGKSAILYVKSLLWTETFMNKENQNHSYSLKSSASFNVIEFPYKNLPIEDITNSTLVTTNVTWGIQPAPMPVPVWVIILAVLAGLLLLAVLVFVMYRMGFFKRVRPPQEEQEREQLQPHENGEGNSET
T1 sequence (Q08722 19-323 partner): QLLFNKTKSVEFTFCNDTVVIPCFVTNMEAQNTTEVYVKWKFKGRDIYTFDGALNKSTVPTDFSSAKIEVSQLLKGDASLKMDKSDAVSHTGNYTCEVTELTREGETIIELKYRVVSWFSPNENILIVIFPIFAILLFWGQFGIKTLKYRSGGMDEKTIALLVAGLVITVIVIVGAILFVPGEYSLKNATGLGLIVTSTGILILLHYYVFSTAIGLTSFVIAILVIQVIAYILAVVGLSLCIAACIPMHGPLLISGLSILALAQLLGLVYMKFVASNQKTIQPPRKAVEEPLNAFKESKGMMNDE

CNYYSNSYSFWLASLNPER (Chemically synthesized NC1 alpha3 (IV) 185-203) [[NC1 α3(IV) 185-203], peptide constituted by amino acids 185 to 203 of the NC1 α3(IV) domain of type IV collagen]
angiogenesis in vitro and in vivo (angiogenesis): capable of inhibiting angiogenesis | binding to the αVβ3 integrin-CD47 protein complex on the surface of melanoma cells [1]: binds | proliferation of various cancer cell lines [2]: may inhibit the proliferation | migration of melanoma or fibrosarcoma cells in vitro [3]: inhibit the migration | tumoral growth of murine melanoma B16F1 cells [4]: inhibits the tumoral growth
